Measurements: the NIST ThermoML archive (doi:10.1021/je0501890)
± gives the expanded uncertainty stated by the source.

Test: xn = mol fraction of the nth substance listed
Settings: 101.33 kPa, Liquid

CCCCCCCO [heptan-1-ol] + ClCCCl
Settings | mass density, 293.15 K [kg/m3] | mass density, 298.15 K [kg/m3] | mass density, 303.15 K [kg/m3] | viscosity, 293.15 K [mPa·s] | viscosity, 298.15 K [mPa·s] | viscosity, 303.15 K [mPa·s]
x1 = 0.0502 | 1213.23 ± 0.85 | 1206.24 ± 0.84 | 1199.3 ± 0.83 | – | – | –
x1 = 0.1023 | – | – | – | 0.922 ± 0.013 | 0.851 ± 0.012 | 0.796 ± 0.011
x1 = 0.1024 | 1175.9 ± 0.79 | 1169.21 ± 0.78 | 1162.55 ± 0.77 | – | – | –
x1 = 0.1493 | 1145.01 ± 0.74 | 1138.62 ± 0.73 | 1132.15 ± 0.72 | – | – | –
x1 = 0.2009 | – | – | – | 1.104 ± 0.015 | 1.006 ± 0.014 | 0.928 ± 0.013
x1 = 0.2511 | 1085.65 ± 0.66 | 1079.74 ± 0.65 | 1073.87 ± 0.64 | – | – | –
x1 = 0.2957 | – | – | – | 1.342 ± 0.018 | 1.215 ± 0.017 | 1.105 ± 0.015
x1 = 0.3445 | 1038.38 ± 0.6 | 1032.88 ± 0.6 | 1027.38 ± 0.59 | – | – | –
x1 = 0.3465 | – | – | – | 1.501 ± 0.02 | 1.353 ± 0.018 | 1.227 ± 0.017
x1 = 0.3896 | 1017.38 ± 0.58 | 1012.13 ± 0.57 | 1006.83 ± 0.57 | – | – | –
x1 = 0.4198 | 1004.18 ± 0.57 | 999.04 ± 0.56 | 993.91 ± 0.56 | – | – | –
x1 = 0.455 | 989.42 ± 0.56 | 984.4 ± 0.57 | 979.35 ± 0.57 | – | – | –
x1 = 0.4616 | – | – | – | 1.939 ± 0.026 | 1.732 ± 0.023 | 1.546 ± 0.021
x1 = 0.5017 | 970.85 ± 0.57 | 966 ± 0.57 | 961.14 ± 0.57 | – | – | –
x1 = 0.5035 | – | – | – | 2.139 ± 0.029 | 1.901 ± 0.026 | 1.699 ± 0.023
x1 = 0.5437 | – | – | – | 2.355 ± 0.032 | 2.079 ± 0.028 | 1.844 ± 0.025
x1 = 0.551 | 952.41 ± 0.57 | 947.76 ± 0.57 | 943.04 ± 0.57 | – | – | –
x1 = 0.5998 | – | – | – | 2.703 ± 0.036 | 2.367 ± 0.032 | 2.089 ± 0.028
x1 = 0.6036 | 933.66 ± 0.57 | 929.17 ± 0.58 | 924.63 ± 0.58 | – | – | –
x1 = 0.6481 | 918.87 ± 0.58 | 914.5 ± 0.58 | 910.13 ± 0.59 | – | – | –
x1 = 0.6602 | 914.96 ± 0.58 | 910.61 ± 0.58 | 906.29 ± 0.59 | – | – | –
x1 = 0.6956 | 903.77 ± 0.59 | 899.55 ± 0.59 | 895.28 ± 0.59 | – | – | –
x1 = 0.6972 | – | – | – | 3.412 ± 0.046 | 2.955 ± 0.04 | 2.583 ± 0.035
x1 = 0.7475 | – | – | – | 3.887 ± 0.052 | 3.354 ± 0.045 | 2.905 ± 0.04
x1 = 0.748 | 887.98 ± 0.6 | 883.88 ± 0.6 | 879.79 ± 0.61 | – | – | –
x1 = 0.7974 | 873.84 ± 0.61 | 869.91 ± 0.61 | 865.91 ± 0.62 | – | – | –
x1 = 0.7978 | – | – | – | 4.397 ± 0.059 | 3.773 ± 0.051 | 3.253 ± 0.044
x1 = 0.8548 | 858.28 ± 0.62 | 854.47 ± 0.63 | 850.61 ± 0.63 | – | – | –
x1 = 0.8862 | – | – | – | 5.474 ± 0.072 | 4.65 ± 0.063 | 3.979 ± 0.055
x1 = 0.8898 | 849.21 ± 0.63 | 845.44 ± 0.64 | 841.7 ± 0.64 | – | – | –
x1 = 0.9489 | 834.67 ± 0.65 | 831.05 ± 0.65 | 827.43 ± 0.66 | – | – | –

ClC(Cl)C(Cl)Cl [1,1,2,2-tetrachloroethane] + CCCCCCCO
Settings | mass density, 293.15 K [kg/m3] | mass density, 298.15 K [kg/m3] | mass density, 303.15 K [kg/m3] | viscosity, 293.15 K [mPa·s] | viscosity, 298.15 K [mPa·s] | viscosity, 303.15 K [mPa·s]
x2 = 0.0506 | 1541.06 ± 1.5 | 1533.58 ± 1.5 | 1526.03 ± 1.4 | – | – | –
x2 = 0.0997 | – | – | – | 1.852 ± 0.024 | 1.69 ± 0.022 | 1.547 ± 0.021
x2 = 0.1031 | 1488.84 ± 1.4 | 1481.6 ± 1.4 | 1474.35 ± 1.4 | – | – | –
x2 = 0.1519 | 1442.21 ± 1.3 | 1435.22 ± 1.3 | 1428.22 ± 1.3 | – | – | –
x2 = 0.2003 | 1397.58 ± 1.2 | 1390.83 ± 1.2 | 1384.07 ± 1.2 | – | – | –
x2 = 0.2073 | – | – | – | 2.091 ± 0.028 | 1.907 ± 0.025 | 1.71 ± 0.023
x2 = 0.2515 | 1351.89 ± 1.1 | 1345.42 ± 1.1 | 1338.9 ± 1.1 | – | – | –
x2 = 0.2998 | 1310.19 ± 1.1 | 1303.92 ± 1.1 | 1297.68 ± 1 | – | – | –
x2 = 0.3054 | – | – | – | 2.417 ± 0.031 | 2.187 ± 0.029 | 1.927 ± 0.026
x2 = 0.3445 | – | – | – | 2.558 ± 0.034 | 2.272 ± 0.03 | 2.027 ± 0.027
x2 = 0.3499 | 1268.42 ± 0.99 | 1262.39 ± 0.98 | 1256.35 ± 0.97 | – | – | –
x2 = 0.4085 | – | – | – | 2.833 ± 0.038 | 2.506 ± 0.033 | 2.225 ± 0.03
x2 = 0.4109 | 1219.27 ± 0.92 | 1213.55 ± 0.91 | 1207.77 ± 0.9 | – | – | –
x2 = 0.4464 | 1191.47 ± 0.88 | 1185.87 ± 0.87 | 1180.31 ± 0.86 | – | – | –
x2 = 0.5042 | – | – | – | 3.341 ± 0.044 | 2.908 ± 0.039 | 2.555 ± 0.034
x2 = 0.5113 | 1142.28 ± 0.82 | 1136.96 ± 0.81 | 1131.65 ± 0.8 | – | – | –
x2 = 0.5438 | – | – | – | 3.564 ± 0.047 | 3.101 ± 0.042 | 2.715 ± 0.037
x2 = 0.5524 | 1112.04 ± 0.76 | 1106.9 ± 0.75 | 1101.73 ± 0.74 | – | – | –
x2 = 0.5988 | – | – | – | 3.924 ± 0.052 | 3.392 ± 0.046 | 2.962 ± 0.04
x2 = 0.6013 | 1077.03 ± 0.69 | 1072.05 ± 0.68 | 1067.13 ± 0.68 | – | – | –
x2 = 0.6506 | 1042.68 ± 0.63 | 1037.91 ± 0.62 | 1033.17 ± 0.62 | – | – | –
x2 = 0.6937 | – | – | – | 4.654 ± 0.062 | 3.992 ± 0.054 | 3.429 ± 0.047
x2 = 0.6959 | 1011.91 ± 0.58 | 1007.34 ± 0.58 | 1002.73 ± 0.57 | – | – | –
x2 = 0.7507 | 975.7 ± 0.56 | 971.35 ± 0.56 | 966.91 ± 0.56 | – | – | –
x2 = 0.753 | – | – | – | 5.166 ± 0.069 | 4.389 ± 0.06 | 3.763 ± 0.052
x2 = 0.8001 | 943.88 ± 0.57 | 939.68 ± 0.57 | 935.48 ± 0.57 | – | – | –
x2 = 0.8007 | – | – | – | 5.595 ± 0.074 | 4.737 ± 0.065 | 4.035 ± 0.056
x2 = 0.8505 | 912.27 ± 0.58 | 908.25 ± 0.58 | 904.23 ± 0.59 | – | – | –
x2 = 0.8971 | – | – | – | 6.506 ± 0.087 | 5.365 ± 0.073 | 4.627 ± 0.063
x2 = 0.8979 | 883.17 ± 0.6 | 879.34 ± 0.6 | 875.45 ± 0.61 | – | – | –
x2 = 0.9513 | 851.1 ± 0.63 | 847.45 ± 0.64 | 843.75 ± 0.64 | – | – | –
